For three compounds, minimal effective concentration results are on record in patent publication US5039670A, “Antithrombotic substituted cycloalkano(B)dihydroindole- and -indole-sulphonamides and use” (Bayer Aktiengesellschaft, priority 1989, dated 1991).

This experiment concerns thrombocyte aggregation. Put plainly: Inhibition of collagen-triggered thrombocyte aggregation in platelet-rich citrated plasma (turbidometry, aggregometer). The experiment is classed as cell-based. Particulars: Homo sapiens, 0.1 h, 37° C., response after 6 minutes, read-out: EC (limiting concentration, range of the minimum effective concentration). As for the experimental part: To determine the action as an inhibitor of thrombocyte aggregation, blood was used from healthy subjects of both sexes. 9 parts of blood were treated with one part of 3.8% strength aqueous sodium citrate solution as an anticoagulant. From this blood, platelet-rich citrated plasma (PRP)^1 is obtained (Jurgens/Beller, Klinische Methoden der Blutgerinnungsanalyse [Clinical Methods in Blood Coagulation Analysis]; Thieme Verlag, Stuttgart, 1959).
For these assays, 0.8 ml of (PRP)^1 and 0.1 ml of the active compound solution were preincubated at 37° C. in a water bath. The thrombocyte aggregation was then determined in an aggregometer at 37° C. (Therapeutische Berichte 47, 80-86, 1975) by means of turbidometry (Born, G.V.R., J. Physiol. (London), 162, 67, 1962). For this purpose, the preincubated sample was treated with 0.1 ml of collagen, an agent which triggers aggregations. The (PRP)^1 sample underwent changes in optical density, which was recorded during a period of 6 minutes, and the response was determined after 6 minutes. From this, the inhibition compared with the control is calculated as a percentage. The limiting concentration given is the range of the minimum effective concentration.
As to `O=C(O)CCn1c2c(c3cc(F)cc(F)c31)CC(NS(=O)(=O)c1ccc(Cl)cc1)CC2` (stereo not drawn) [Example 4], the minimal effective concentration lay within 0.01 to 0.03 µg/mL.

Take `CCOC(=O)CCn1c2c(c3cc(F)ccc31)CC(NS(=O)(=O)c1ccc(Cl)cc1)CC2` (stereo not drawn) [Example 8]: the minimal effective concentration was in the range of 0.3 to 1 µg/mL.

For the compound `NC(=O)CCn1c2c(c3cc(F)ccc31)CC(NS(=O)(=O)c1ccc(Cl)cc1)CC2` (stereo not drawn) [Example 15], the minimal effective concentration lay within 0.01 to 0.03 µg/mL.
